Test results reported in patent publication US20260274830A1, “DEUTERIUM-SUBSTITUTED PYRIDAZINE BENZOTHIOPHENE COMPOUND AND USE THEREOF” (MEDSHINE DISCOVERY INC., priority 2022, published 2026).

Tests used:
[1] = biological target: T1, NLRP3 (Rattus norvegicus, UniProt D4A523); assay: LPS-stimulated IL-1β release assay in rat primary microglia; format: cell-based; settings: LPS 50 ng/ml 3 h, compound 0.5 h, Nigericin 0.3 μg/mL 1 h, IL-1β ELISA
T1 construct: Newborn SD rats were used to obtain mixed glial cells from the cerebral cortex; endogenous in cells; host or cells: primary microglia from the cerebral cortex of newborn SD rats, LPS-primed, nigericin-stimulated
T1 sequence (D4A523 whole entry): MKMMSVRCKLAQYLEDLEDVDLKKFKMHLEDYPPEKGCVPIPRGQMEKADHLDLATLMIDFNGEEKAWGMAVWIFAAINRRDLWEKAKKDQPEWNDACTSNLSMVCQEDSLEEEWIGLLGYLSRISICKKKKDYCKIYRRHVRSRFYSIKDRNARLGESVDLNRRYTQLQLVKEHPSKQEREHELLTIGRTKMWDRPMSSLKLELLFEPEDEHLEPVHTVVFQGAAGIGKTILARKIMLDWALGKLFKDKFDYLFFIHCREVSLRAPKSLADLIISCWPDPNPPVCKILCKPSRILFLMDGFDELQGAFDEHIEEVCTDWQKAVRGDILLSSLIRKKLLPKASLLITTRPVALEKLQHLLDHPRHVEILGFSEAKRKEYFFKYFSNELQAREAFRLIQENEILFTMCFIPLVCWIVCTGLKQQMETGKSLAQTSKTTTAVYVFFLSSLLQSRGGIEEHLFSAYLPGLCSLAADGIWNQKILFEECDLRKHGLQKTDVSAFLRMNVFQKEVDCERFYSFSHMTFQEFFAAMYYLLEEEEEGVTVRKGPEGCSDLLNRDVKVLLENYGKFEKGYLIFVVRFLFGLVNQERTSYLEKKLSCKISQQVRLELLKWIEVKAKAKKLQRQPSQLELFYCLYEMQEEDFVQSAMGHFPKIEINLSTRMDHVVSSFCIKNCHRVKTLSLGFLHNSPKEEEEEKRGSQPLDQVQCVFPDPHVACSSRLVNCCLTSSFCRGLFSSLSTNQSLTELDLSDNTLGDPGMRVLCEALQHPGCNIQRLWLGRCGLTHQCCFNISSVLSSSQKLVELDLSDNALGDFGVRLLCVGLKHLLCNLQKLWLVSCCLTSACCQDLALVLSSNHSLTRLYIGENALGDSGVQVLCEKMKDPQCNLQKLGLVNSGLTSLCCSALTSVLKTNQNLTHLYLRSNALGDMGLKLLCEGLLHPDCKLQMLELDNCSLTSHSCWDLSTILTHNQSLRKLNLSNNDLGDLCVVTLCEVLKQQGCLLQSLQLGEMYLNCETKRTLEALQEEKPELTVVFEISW

[2] = Pharmacokinetic evaluation in SD rats in vivo; parameters: species or system SD rat
Protocol: (§1) The pharmacokinetic characteristics of the compound in rodents after intravenous injection and oral administration were tested according to the standard protocol. In the experiment, the candidate compound was formulated into clear solutions, and a single intravenous injection and oral administration were given to SD rats. The vehicle for intravenous injection and oral administration was a mixed vehicle composed of 5% dimethyl sulfoxide and 95% solutol with a content of 5%. Four male SD rats were used in this project. Two SD rats were administered via intravenous injections, and plasma samples were collected at 0.083, 0.25, 0.5, 1, 2, 4, 8, and 24 h post-administration. The other two SD rats were administered orally by gavage, and plasma samples were collected at 0.25, 0.5, 1, 2, 4, 8, and 24 h post-administration. Plasma concentrations were quantitatively analyzed by LC-MS/MS analysis method, and pharmacokinetic parameters such as peak concentration (Cmax), clearance (CL), half-life (T1/2), volume of distribution at steady state (Vdss), area under the drug-time curve (AUC0-last), and bioavailability (F) were calculated.
as §1, with “injections at a dose of 2 mg/kg,” for “injections,”, “gavage at a dose of 10 mg/kg,” for “gavage,”

[3] = Pharmacokinetic evaluation in beagle dogs in vivo; parameters: species or system beagle dog
Protocol: as §1, with “beagle dogs” for “rodents”, “after” for “after intravenous injection and”, “beagle dogs.” for “SD rats.”, “beagle dogs” for “SD rats”, “injections at a dose of 1 mg/kg,” for “injections,”, “gavage at a dose of 2 mg/kg,” for “gavage,”

[4] = IV and PO, oral bioavailability, oral exposure, half-life, clearance

## [2H]C([2H])([2H])N1CCC[C@@H](Nc2cc(C)c(-c3ccc4sccc4c3O)nn2)C1 [Compound II]
[1]
  IC50: 35.8 nM
[2]; [4]
  pharmacokinetic properties in SD rats in vivo (in words): good pharmacokinetic properties
[2]; male, rat, plasma, IV 2 mg/kg, read-out: Area under drug-time curve AUC0-last IV
  AUC(0-t): 1.87 µM·h
[2]; male, rat, plasma, IV 2 mg/kg, read-out: Clearance CL
  clearance: 47.4 mL/min/kg
[2]; male, rat, plasma, IV 2 mg/kg, read-out: Half-life T1/2 (IV) (converted)
  half-life: 109 min
[2]; male, rat, plasma, IV 2 mg/kg, read-out: Volume of distribution at steady state Vdss
  Vd: 6.99 L/kg
[2]; male, rat, plasma, PO 10 mg/kg vs IV 2 mg/kg, read-out: Bioavailability F
  bioavailability: 27.1%
[2]; male, rat, plasma, PO 10 mg/kg, read-out: Area under drug-time curve AUC0-last PO
  AUC(0-t): 2.35 µM·h
[2]; male, rat, plasma, oral gavage 10 mg/kg (route not given), read-out: Peak concentration Cmax
  Cmax: 593 nM
[3]; [4]
  pharmacokinetic properties in beagle dogs in vivo (in words): good pharmacokinetic properties
[3]; male, dog, plasma, IV 1 mg/kg, read-out: Area under drug-time curve AUC0-last IV
  AUC(0-t): 1.92 µM·h
[3]; male, dog, plasma, IV 1 mg/kg, read-out: Clearance CL
  clearance: 25.7 mL/min/kg
[3]; male, dog, plasma, IV 1 mg/kg, read-out: Half-life T1/2 (IV) (converted)
  half-life: 212 min
[3]; male, dog, plasma, IV 1 mg/kg, read-out: Volume of distribution at steady state Vdss
  Vd: 6.9 L/kg
[3]; male, dog, plasma, PO 2 mg/kg vs IV 1 mg/kg, read-out: Bioavailability F
  bioavailability: 80.9%
[3]; male, dog, plasma, PO 2 mg/kg, read-out: Area under drug-time curve AUC0-last PO
  AUC(0-t): 3.11 µM·h
[3]; male, dog, plasma, oral gavage 2 mg/kg (route not given), read-out: Peak concentration Cmax
  Cmax: 504 nM
